Literature values in US10137126B2, “Method of preparing very slightly soluble drug with solid dosage form” (YUNG SHIN PHARM. IND. CO., LTD., priority 2015, dated 2018).

| aqueous solubility | SMILES |
| --- | --- |
| 1 g/1,000 ml | CCC(C)n1ncn(-c2ccc(N3CCN(c4ccc(OCC5COC(Cn6cncn6)(c6ccc(Cl)cc6Cl)O5)cc4)CC3)cc2)c1=O (stereo not drawn) [Itraconazole] |
| 2 g/1,000,000 ml | CN1CC(=O)N2[C@H](c3ccc4c(c3)OCO4)c3[nH]c4ccccc4c3C[C@@H]2C1=O [Tadalafil] |
| 1 g/10,000 ml | C[C@@H](c1ncncc1F)[C@](O)(Cn1cncn1)c1ccc(F)cc1F [Voriconazole] |
